The values below come from US11173151B2, “Substituted triazole derivatives and uses thereof” (BAYER AKTIENGESELLSCHAFT, priority 2017, dated 2021).

The target of one test is T1, human V1a receptor (Homo sapiens, UniProt P37288).
T1 construct: expressed in transfected cells; host or cells: CHO K1 (ATCC), also stably transfected with a modified aequorin
The experiment in a line: Cellular in vitro assay for determining vasopressin receptor activity, V1a receptor cell line (CHO, aequorin luminescence). It is filed as cell-based. The note with it: for IC50: CHO cell line transfected with human V1a receptor, [Arg]-vasopressin at EC50 concentration, read-out: IC50 hV1a; for ratio IC50 hV2/hV1a: selectivity ratio IC50 hV2 / IC50 hV1a. The procedure, abridged:
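Cells were plated the day before in medium containing 5 μg/ml coelenterazine and kept at 37° C. Compounds at various concentrations were then added for 10 minutes. Next, [Arg]-vasopressin at EC50 was applied and light output recorded at once, yielding IC50.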

For the next test, the target named is T2, human V2 receptor (Homo sapiens, UniProt P30518).
T2 construct: expressed in transfected cells; host or cells: CHO K1 (ATCC) expressing firefly luciferase under a CRE-responsive promoter
T2 sequence (P30518 whole entry): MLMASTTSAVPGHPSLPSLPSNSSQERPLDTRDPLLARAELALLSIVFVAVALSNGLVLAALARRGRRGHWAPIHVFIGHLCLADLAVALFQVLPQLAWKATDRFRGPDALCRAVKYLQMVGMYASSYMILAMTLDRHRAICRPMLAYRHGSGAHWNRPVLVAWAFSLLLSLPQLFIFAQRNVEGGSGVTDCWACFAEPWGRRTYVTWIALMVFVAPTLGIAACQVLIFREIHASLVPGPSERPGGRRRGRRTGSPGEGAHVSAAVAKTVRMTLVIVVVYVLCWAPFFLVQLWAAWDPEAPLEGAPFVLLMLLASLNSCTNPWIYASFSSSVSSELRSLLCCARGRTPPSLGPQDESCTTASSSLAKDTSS
In words: Cellular in vitro assay for determining vasopressin receptor activity, V2 receptor cell line (CHO, CRE-luciferase). It is filed as cell-based. Conditions: CHO cell line transfected with human V2 receptor; [Arg8]-vasopressin at EC50 concentration, 3 hours; read-out: IC50 hV2.

T1 sequence (P37288 whole entry): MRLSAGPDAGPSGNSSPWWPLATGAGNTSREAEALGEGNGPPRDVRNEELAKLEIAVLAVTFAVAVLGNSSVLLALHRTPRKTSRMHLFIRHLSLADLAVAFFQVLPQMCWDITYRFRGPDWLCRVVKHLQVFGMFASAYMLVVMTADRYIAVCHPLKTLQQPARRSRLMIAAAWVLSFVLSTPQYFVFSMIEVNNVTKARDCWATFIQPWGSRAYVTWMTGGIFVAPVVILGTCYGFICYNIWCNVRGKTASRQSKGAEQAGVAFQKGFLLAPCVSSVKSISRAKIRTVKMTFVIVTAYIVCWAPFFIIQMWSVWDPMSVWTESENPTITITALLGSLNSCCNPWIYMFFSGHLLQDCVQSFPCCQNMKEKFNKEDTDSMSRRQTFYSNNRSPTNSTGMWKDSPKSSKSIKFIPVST

As to `O=C(Nc1nncs1)c1ccccc1-n1cnc(Cn2nc(-c3ccc(Cl)cc3)n(C[C@H](O)C(F)(F)F)c2=O)n1` [Example 251, 2-[3-({3-(4-Chlorophenyl)-5-oxo-4-[(2S)-3,3,3-trifluoro-2-hydroxypropyl]-4,5-dihydro-1H-1,2,4-triazol-1-yl}methyl)-1H-1,2,4-triazol-1-yl]-N-(1,3,4-thiadiazol-2-yl)benzamide], the IC50 (in general, the concentration at which inhibition is half-maximal) at human V1a receptor was found to be 8.85 nM; at human V2 receptor, 81.5 nM. Besides, the “ratio IC50 hV2/hV1a” value on human V1a receptor came to 9.2.
Taken in the same sequence, the figures for `N#CCNC(=O)c1ccccc1-n1cnc(Cn2nc(-c3ccc(Cl)cc3)n(C[C@H](O)C(F)(F)F)c2=O)n1` [Example 252, 2-[3-({3-(4-Chlorophenyl)-5-oxo-4-[(2S)-3,3,3-trifluoro-2-hydroxypropyl]-4,5-dihydro-1H-1,2,4-triazol-1-yl}methyl)-1H-1,2,4-triazol-1-yl]-N-(cyanomethyl)benzamide] were 7.6 nM, 255 nM and 33.6.
As to `O=C(NCc1cccs1)c1ccccc1-n1cnc(Cn2nc(-c3ccc(Cl)cc3)n(C[C@H](O)C(F)(F)F)c2=O)n1` [Example 253, 2-[3-({3-(4-Chlorophenyl)-5-oxo-4-[(2S)-3,3,3-trifluoro-2-hydroxypropyl]-4,5-dihydro-1H-1,2,4-triazol-1-yl}methyl)-1H-1,2,4-triazol-1-yl]-N-(thiophen-2-ylmethyl)benzamide], at human V1a receptor, the IC50 amounted to 5.7 nM and the “ratio IC50 hV2/hV1a” value turned out to be 64.0. At human V2 receptor, the concentration for half-maximal inhibition (IC50) worked out at 365 nM.
On to `Cc1cc(NC(=O)c2ccccc2-n2cnc(Cn3nc(-c4ccc(Cl)cc4)n(C[C@H](O)C(F)(F)F)c3=O)n2)ccn1` [Example 254, 2-[3-({3-(4-Chlorophenyl)-5-oxo-4-[(2S)-3,3,3-trifluoro-2-hydroxypropyl]-4,5-dihydro-1H-1,2,4-triazol-1-yl}methyl)-1H-1,2,4-triazol-1-yl]-N-(2-methylpyridin-4-yl)benzamide], for which, at human V1a receptor, the half-inhibitory concentration (IC50) was 2.25 nM and the “ratio IC50 hV2/hV1a” value turned out to be 297.8. Also, the IC50 on human V2 receptor came out at 670 nM.
In the case of `O=C(Nc1cncc(F)c1)c1ccccc1-n1cnc(Cn2nc(-c3ccc(Cl)cc3)n(C[C@H](O)C(F)(F)F)c2=O)n1` [Example 255, 2-[3-({3-(4-Chlorophenyl)-5-oxo-4-[(2S)-3,3,3-trifluoro-2-hydroxypropyl]-4,5-dihydro-1H-1,2,4-triazol-1-yl}methyl)-1H-1,2,4-triazol-1-yl]-N-(5-fluoropyridin-3-yl)benzamide], on human V1a receptor, the IC50 was 1.33 nM and the “ratio IC50 hV2/hV1a” value is listed as 169.8. The concentration for half-maximal inhibition (IC50) on human V2 receptor is 225 nM.
On to `Cc1cnc(NC(=O)c2ccccc2-n2cnc(Cn3nc(-c4ccc(Cl)cc4)n(C[C@H](O)C(F)(F)F)c3=O)n2)s1` [Example 256, 2-[3-({3-(4-Chlorophenyl)-5-oxo-4-[(2S)-3,3,3-trifluoro-2-hydroxypropyl]-4,5-dihydro-1H-1,2,4-triazol-1-yl}methyl)-1H-1,2,4-triazol-1-yl]-N-(5-methyl-1,3-thiazol-2-yl)benzamide], for which, at human V1a receptor, the concentration for half-maximal inhibition (IC50) stood at 3.6 nM and the “ratio IC50 hV2/hV1a” value turned out to be 3.6. The IC50 on human V2 receptor is 13 nM.
In the case of `O=C(Nc1ccncn1)c1ccccc1-n1cnc(Cn2nc(-c3ccc(Cl)cc3)n(C[C@H](O)C(F)(F)F)c2=O)n1` [Example 257, 2-[3-({3-(4-Chlorophenyl)-5-oxo-4-[(2S)-3,3,3-trifluoro-2-hydroxypropyl]-4,5-dihydro-1H-1,2,4-triazol-1-yl}methyl)-1H-1,2,4-triazol-1-yl]-N-(pyrimidin-4-yl)benzamide], on human V1a receptor, the IC50 was determined as 6.05 nM and the “ratio IC50 hV2/hV1a” value is reported as 24.8. The IC50 on human V2 receptor was 150 nM.
Taken in the same sequence, the figures for `O=C(Nc1ccccc1Cl)c1ccccc1-n1cnc(Cn2nc(-c3ccc(Cl)cc3)n(C[C@H](O)C(F)(F)F)c2=O)n1` [Example 258, N-(2-Chlorophenyl)-2-[3-({3-(4-chlorophenyl)-5-oxo-4-[(2S)-3,3,3-trifluoro-2-hydroxypropyl]-4,5-dihydro-1H-1,2,4-triazol-1-yl}methyl)-1H-1,2,4-triazol-1-yl]benzamide] were 1.9 nM, 42.9 and 81.5 nM.
`Cc1csc(NC(=O)c2ccccc2-n2cnc(Cn3nc(-c4ccc(Cl)cc4)n(C[C@H](O)C(F)(F)F)c3=O)n2)n1` [Example 259, 2-[3-({3-(4-Chlorophenyl)-5-oxo-4-[(2S)-3,3,3-trifluoro-2-hydroxypropyl]-4,5-dihydro-1H-1,2,4-triazol-1-yl}methyl)-1H-1,2,4-triazol-1-yl]-N-(4-methyl-1,3-thiazol-2-yl)benzamide]: at human V1a receptor, the half-inhibitory concentration (IC50) worked out at 2.5 nM and the “ratio IC50 hV2/hV1a” value stood at 22.0. Moreover, the half-maximal inhibitory concentration (IC50) on human V2 receptor was 55 nM.
For `CC1=C(C)CN(C(=O)c2ccccc2-n2cnc(Cn3nc(-c4ccc(Cl)cc4)n(C[C@H](O)C(F)(F)F)c3=O)n2)CC1` [Example 260, 5-(4-Chlorophenyl)-2-[(1-{2-[(4,5-dimethyl-3,6-dihydropyridin-1(2H)-yl)carbonyl]phenyl}-1H-1,2,4-triazol-3-yl)methyl]-4-[(2S)-3,3,3-trifluoro-2-hydroxypropyl]-2,4-dihydro-3H-1,2,4-triazol-3-one] the same measures were 25.5 nM, 29.8 and 760 nM.
Taken in the same sequence, the figures for `CCN(OC)C(=O)c1ccccc1-n1cnc(Cn2nc(-c3ccc(Cl)cc3)n(C[C@H](O)C(F)(F)F)c2=O)n1` [Example 261, 2-[3-({3-(4-Chlorophenyl)-5-oxo-4-[(2S)-3,3,3-trifluoro-2-hydroxypropyl]-4,5-dihydro-1H-1,2,4-triazol-1-yl}methyl)-1H-1,2,4-triazol-1-yl]-N-ethyl-N-methoxybenzamide] were 1.45 nM, 310.3 and 450 nM.
For `O=C(c1ccccc1-n1cnc(Cn2nc(-c3ccc(Cl)cc3)n(C[C@H](O)C(F)(F)F)c2=O)n1)N1C[C@@H]2C[C@H]1CO2` [Example 262, 5-(4-Chlorophenyl)-2-[(1-{2-[(1S,4S)-2-oxa-5-azabicyclo[2.2.1]hept-5-ylcarbonyl]phenyl}-1H-1,2,4-triazol-3-yl)methyl]-4-[(2S)-3,3,3-trifluoro-2-hydroxypropyl]-2,4-dihydro-3H-1,2,4-triazol-3-one] the same measures were 3.4 nM, 258.8 and 880 nM.
On to `O=CN1CCN(C(=O)c2ccccc2-n2cnc(Cn3nc(-c4ccc(Cl)cc4)n(C[C@H](O)C(F)(F)F)c3=O)n2)CC1` [Example 263, 4-{2-[3-({3-(4-Chlorophenyl)-5-oxo-4-[(2S)-3,3,3-trifluoro-2-hydroxypropyl]-4,5-dihydro-1H-1,2,4-triazol-1-yl}methyl)-1H-1,2,4-triazol-1-yl]benzoyl}piperazine-1-carbaldehyde], for which the half-inhibitory concentration (IC50) at human V1a receptor is 32.5 nM; on human V2 receptor, 8350 nM. In addition, at human V1a receptor, the “ratio IC50 hV2/hV1a” value is 256.9.
Take `CN(C)C(=O)c1ccccc1-n1cnc(Cn2nc(-c3ccc(Cl)cc3)n(C[C@H](O)C(F)(F)F)c2=O)n1` [Example 264, 2-[3-({3-(4-Chlorophenyl)-5-oxo-4-[(2S)-3,3,3-trifluoro-2-hydroxypropyl]-4,5-dihydro-1H-1,2,4-triazol-1-yl}methyl)-1H-1,2,4-triazol-1-yl]-N,N-dimethylbenzamide]: the IC50 is 2.45 nM at human V1a receptor and 1260 nM on human V2 receptor. The “ratio IC50 hV2/hV1a” value at human V1a receptor is 512.2.
Take `O=C1CCN(C(=O)c2ccccc2-n2cnc(Cn3nc(-c4ccc(Cl)cc4)n(C[C@H](O)C(F)(F)F)c3=O)n2)CCN1` [Example 265, 1-{2-[3-({3-(4-Chlorophenyl)-5-oxo-4-[(2S)-3,3,3-trifluoro-2-hydroxypropyl]-4,5-dihydro-1H-1,2,4-triazol-1-yl}methyl)-1H-1,2,4-triazol-1-yl]benzoyl}-1,4-diazepan-5-one]: on human V1a receptor, the concentration for half-maximal inhibition (IC50) came out at 34.5 nM and the “ratio IC50 hV2/hV1a” value is on record as 255.1. Also, the 50% inhibitory concentration (IC50) on human V2 receptor came out at 8800 nM.
For `CC1CCN(C(=O)c2ccccc2-n2cnc(Cn3nc(-c4ccc(Cl)cc4)n(C[C@H](O)C(F)(F)F)c3=O)n2)C(C)C1` (stereo partly drawn) [Example 266, 5-(4-Chlorophenyl)-2-[(1-{2-[(2,4-dimethylpiperidin-1-yl)carbonyl]phenyl}-1H-1,2,4-triazol-3-yl)methyl]-4-[(2S)-3,3,3-trifluoro-2-hydroxypropyl]-2,4-dihydro-3H-1,2,4-triazol-3-one] the same measures were 3.85 nM, 223.4 and 860 nM.
For `CC1CN(C(=O)c2ccccc2-n2cnc(Cn3nc(-c4ccc(Cl)cc4)n(C[C@H](O)C(F)(F)F)c3=O)n2)CCN1C` (stereo partly drawn) [Example 267] the same measures were 33.5 nM, 119.4 and 4000 nM.
Taken in the same sequence, the figures for `O=C(c1ccccc1-n1cnc(Cn2nc(-c3ccc(Cl)cc3)n(C[C@H](O)C(F)(F)F)c2=O)n1)N1CCC(F)(F)C1` [Example 268, 5-(4-Chlorophenyl)-2-[(1-{2-[(3,3-difluoropyrrolidin-1-yl)carbonyl]phenyl}-1H-1,2,4-triazol-3-yl)methyl]-4-[(2S)-3,3,3-trifluoro-2-hydroxypropyl]-2,4-dihydro-3H-1,2,4-triazol-3-one] were 3.65 nM, 265.8 and 970 nM.
As to `COC1CCN(C(=O)c2ccccc2-n2cnc(Cn3nc(-c4ccc(Cl)cc4)n(C[C@H](O)C(F)(F)F)c3=O)n2)CC1` [Example 271, 5-(4-Chlorophenyl)-2-[(1-{2-[(4-methoxypiperidin-1-yl)carbonyl]phenyl}-1H-1,2,4-triazol-3-yl)methyl]-4-[(2S)-3,3,3-trifluoro-2-hydroxypropyl]-2,4-dihydro-3H-1,2,4-triazol-3-one], the IC50 came to 14.5 nM on human V1a receptor and 3500 nM at human V2 receptor. For the same compound, the “ratio IC50 hV2/hV1a” value on human V1a receptor was found to be 241.4.
